Active and inactive are the calls of the source. No cut-off for these calls is given here.
Columns and labels:
Neuron [1] = assay: Inhibition of NGF-stimulated extension of neural processes in chick embryo neurons at 300 nM; format: functional, cell-based; details: Gallus gallus
Neuron [2] = assay: Inhibition of NGF-stimulated extension of neural processes in chick embryo neurons at 80 nM; format: functional; details: Gallus gallus

In the case of `C=C1C(=O)O[C@H]2[C@H]1[C@@H](OC(=O)[C@@]1(C)CO1)CC(=C)[C@@H]1C[C@H](O)[C@]3(CO3)[C@H]21`, the Activity (Neuron [1]) is reported as “Active”.
Work on `C=C1C(=O)O[C@H]2[C@H]1[C@@H](OC(=O)[C@]1(C)CO1)CC(=C)[C@@H]1C[C@H](O)[C@]3(CO3)[C@H]21` [REPIN] yielded an inhibition at 0.08 µM (Neuron [2]) of 50%.
